The results in this text go back to US20040138301A1, “Chemical uncouplers for the treatment of obesity” (priority 2002, published 2004).

A value given as a limit tells only on which side of the number the result lay.

This assay concerns FSK-4 cells. The assay can be described thus: Assay (IV): Glucose utilisation in FSK-4 cells. It is filed as cell-based. Conditions: FSK-4 cells; for EC50: glucose utilisation, 24 hours incubation, read-out: FSK4 EC50; for Emax: maximal efficacy relative to FCCP, read-out: FSK4 Emax (% of FCCP).

As usually defined, the EC50 is the concentration giving half of the maximal effect. In general, Emax refers to the size of the effect at its maximum, as opposed to the concentration needed. As for `Cc1c(Br)cc(C(C)(C)C)c(O)c1C(=O)Nc1ccc([N+](=O)[O-])cc1C(F)(F)F` [Example 58, 3-Bromo-5-Tert-Butyl-6-Hydroxy-2-Methyl-N-(4-Nitro-2-Trifluoromethyl-Phenyl)-Benzamide], the EC50 was less than 30 nM and the Emax came to 100%.

Consider `CC(=C(C#N)C#N)c1cc(C(C)(C)C)c(O)c(C(C)(C)C)c1` [Example 75, 2-[1-(3,5-Di-Tert-Butyl-4-Hydroxy-Phenyl)-Ethylidene]-Malononitrile], for which the EC50 turned out to be 700 nM and the Emax turned out to be 75%.

Regarding `Cc1c(Cl)cc(C(C)(C)C)c(O)c1C(=O)Nc1ccc([N+](=O)[O-])cc1C(F)(F)F` [Example 50, 3-Tert-Butyl-5-Chloro-2-Hydroxy-6-Methyl-N-(4-Nitro-2-Trifluoromethyl-Phenyl)-Benzamide], the EC50 was less than 30 nM and the Emax came to 75%.

For `N#CC(C#N)=Cc1c(Cl)[nH]c2ccccc12` [Example 34, 2-(2-Chloro-1H-Indol-3-Ylmethylene)-Malononitrile], the EC50 was 400 nM and the Emax worked out at 90%.

Consider `CC(C)(C)c1cc(/C=C(\C#N)c2ccc([N+](=O)[O-])cc2)cc(C(C)(C)C)c1O` [Example 77, 3-(3,5-Di-Tert-Butyl-4-Hydroxy-Phenyl)-2-(4-Nitro-Phenyl)-Acrylonitrile], for which the EC50 amounted to 1000 nM and the Emax worked out at 110%.

For the molecule `N#CC(C#N)=Cc1c[nH]c2ccc(Cl)cc12` [Example 30, 2-((5-Chloro-1H-Indol-3-Yl)Methylene)Malononitrile], the EC50 stood at 50000 nM and the Emax worked out at 100%.

With `Cc1c(Br)cc(C(C)(C)C)c(O)c1C(=O)Nc1ccc([N+](=O)[O-])cc1Cl` [Example 37, 3-Bromo-5-Tert-Butyl-N-(2-Chloro-4-Nitro-Phenyl)-6-Hydroxy-2-Methyl-Benzamide], the EC50 is 30 nM and the Emax was 110%.

On to `Cc1cc(C(C#N)c2ccc(Cl)cc2)c(Cl)cc1NC(=O)c1c(C)c(Br)cc(C(C)(C)C)c1O` (stereo not drawn) [Example 56, 3-Bromo-5-Tert-Butyl-N-{5-Chloro-4-[(4-Chloro-Phenyl)-Cyano-Methyl]-2-Methyl-Phenyl}-6-Hydroxy-2-Methyl-Benzamide], for which the concentration giving a half-maximal response (EC50) is 8000 nM and the Emax came out at 105%.

As for `N#CC(C#N)=NNc1ccc(OC(F)(F)F)cc1` [Example 27, Carbonylcyanide p-Trifluoromethoxy-Phenylhydrazone, reference compound], the EC50 came to 1000 nM and the Emax was 100%.
